Publication PMC8073777, “Design, Synthesis, Biological Evaluation and In Silico Studies of Pyrazole-Based NH2-Acyl Oseltamivir Analogues as Potent Neuraminidase Inhibitors” (Pharmaceuticals, 2021)

Molecular target: A/H3N2 influenza NA (Influenza A virus (H3N2), UniProt Q91IQ5)
Type: biochemical, A/H3N2 influenza virus (clinical isolate from Hong Kong)
Details: 10 µM

| Structure (SMILES) | Inhibitory rate against A/H3N2 influenza NA [%] |
| --- | --- |
| CCC(CC)O[C@@H]1C=C(C(=O)O)C[C@H](NC(=O)c2cc(C3CC3)nn2-c2ccccc2C)[C@H]1NC(C)=O [Compound 26b, (3R,4R,5S)-4-acetamido-5-(3-cyclopropyl-1-(o-tolyl)-1H-pyrazole-5-carboxamido)-3-(pentan-3-yloxy) cyclohex-1-ene-1-carboxylic acid] | 72.80 |
| CCC(CC)O[C@@H]1C=C(C(=O)O)C[C@H](NC(=O)c2cc(C3CC3)nn2-c2cccc(C)c2)[C@H]1NC(C)=O [Compound 26c, (3R,4R,5S)-4-acetamido-5-(3-cyclopropyl-1-(m-tolyl)-1H-pyrazole-5-carboxamido)-3-(pentan-3-yloxy) cyclohex-1-ene-1-carboxylic acid] | 31.53 |
| CCC(CC)O[C@@H]1C=C(C(=O)O)C[C@H](NC(=O)c2cc(C3CC3)nn2-c2ccc(Br)cc2)[C@H]1NC(C)=O [Compound 26d, (3R,4R,5S)-4-acetamido-5-(1-(4-bromophenyl)-3-cyclopropyl-1H-pyrazole-5-carboxamido)-3-(pentan-3-yloxy) cyclohex-1-ene-1-carboxylic acid] | 37.17 |
| CCC(CC)O[C@@H]1C=C(C(=O)O)C[C@H](N)[C@H]1NC(C)=O [OC, oseltamivir carboxylate, reference compound] | 97.46 |
